Assay results taken from patent publication US20170274004A1, “TREATMENT OF CANCER USING TLR9 AGONIST WITH CHECKPOINT INHIBITORS” (IDERA PHARMACEUTICALS, INC., priority 2014, published 2017).

Legend:
Assay type in all cases: in vivo, BALB/c mice
A20 cells = test: Intratumoral vs subcutaneous TLR9 agonist in A20 lymphoma model (Example 2)
Description: BALB/c mice (n=10) were implanted s.c with 3×10^6 A20 cells on the right flank. Treatment was initiated on day 8 with either intratumoral (i.t.) or subcutaneous (s.c.) injection of 2.5 mg/kg IMO-4. IMO-4 was given on days 8, 10, 12 and 14. Samples from placebo (PBS) control and IMO-4 treated tumor-bearing mice were collected on day 21 after tumor implantation. […] Intratumoral IMO-4 also modulated tumor checkpoint expression compared to subcutaneous administration thereby sensitizing the tumor microenvironment for combination with one or more checkpoint inhibitors (data not shown).

A20 lymphoma = test: Intratumoral TLR9 agonist in A20 lymphoma model, treated and distant tumors (Example 3)
CT26 cells [1] = test: TLR9 agonist and anti-IDO1 inhibitor combination, CT26 treated tumors and systemic lung metastases (Example 9); conditions: compared with PBS group (nodules infiltrating most of the lung tissues); FIG. 16 legend
Description: BALB/c mice were implanted s.c with 1×10^7 CT26 cells on right flank. The mice were than i.v injected with 3×10^6 CT26 cells to establish lung metastases. Treatment was initiated on day 4. 2.5 mg/kg IMO-4 was administered intratumorally into solid tumors on the right flank and 75 mg/kg anti-IDO1 inhibitor was administered orally (p.o.). IMO-4 and anti-IDO1 inhibitor were given either alone or co-administered on days 4, 5, 7, and 8. Anti-IDO1 was administered twice. Samples from control, IMO-4, anti-IDO1 inhibitor or IMO-4 and anti-IDO1 inhibitor treated tumor-bearing mice were collected. FIGS. 14 through 17 show the effects of IMO-4 and anti-IDO1 inhibitor on directly treated tumors and systemic lung metastasis.

[2] = tested on: murine colon carcinoma CT26 cells; test: TLR9 agonist and anti-PD-1 mAb combination, CT26 treated and distant tumors (Example 7); conditions: FIG. 11
Description: BALB/c mice (n=8 per group) were implanted s.c with 1×10^7 murine colon carcinoma CT26 cells in right flank (Tumor 1) and left flank (Tumor 2). Treatment was initiated on day 7 when tumor volume on reaches 200 to 300 mm^3. 2.5 mg/kg IMO-4 (50 μg in 100 μl PBS) was i.t injected at right tumor nodules and anti-PD-1 mAb (10 mg/kg, 200 μg/mouse) was administered by i.p injection either alone or co-administered on days 7, 8, 11 and 12 for total 4 times. Tumor nodules were collected at day 14.

B16 cells = test: Intratumoral TLR9 agonist in B16 melanoma model, treated and distant tumors (Example 5)
Description: (§1) […] mice (n=9) were implanted s.c with 1×10^6 B16 cells on the right and left flank. Treatment was initiated on day 7 with intratumoral injection in the left flank with of 2.5 mg/kg IMO-4. IMO-4 was given on days 7, 9, 11, 13 and 15. Samples from placebo (PBS) control and IMO-4 treated tumor-bearing mice were collected on day 22 after tumor implantation. […] Intratumoral IMO-4 also modulated tumor checkpoint expression thereby sensitizing the tumor microenvironment for combination with one or more checkpoint inhibitors (data not shown).

CT26 cells [3] = test: Intratumoral TLR9 agonist in CT26 colon carcinoma model, treated and distant tumors (Example 4)
Description: as §1, with “2×10^6 CT26” for “1×10^6 B16”, “with” for “with of”, “27” for “22”

## 5-TCGAACG1TTCG1-X-G1CTTG1CAAG1CT-5′ (chain 1 TCGAACGTTCG; chain 2 TCGAACGTTCG; two copies joined 3'-3' by glycerol linker; G1 modified; modified_base (3)..(3) 2′-deoxy-7-deazaguanosine; modified_base (7)..(7) 2′-deoxy-7-deazaguanosine; modified_base (11)..(11) 2′-deoxy-7-deazaguanosine) [IMO-4]
A20 cells; intratumoral 2.5 mg/kg on days 8, 10, 12, 14, FIG. 3
  antitumor activity: potent antitumor activity
A20 cells; intratumoral 2.5 mg/kg, samples day 21, FIG. 3
  CD3+ TIL infiltration: induced
A20 cells; intratumoral compared to subcutaneous administration, data not shown
  tumor checkpoint expression: modulated
A20 lymphoma; intratumoral in left flank, 2.5 mg/kg on days 8, 10, 12, 14, FIG. 4
  antitumor activity, treated and distant tumor nodules: potent antitumor activity in both treated and distant tumor nodules
A20 lymphoma; intratumoral, data not shown
  tumor checkpoint expression: modulated
CT26 cells [1]
  tumor nodules in lung tissues: tumor nodules are smaller than that of the PBS group
[2]; compared with few CD3+ cells in PBS (vehicle) mice
  CD3+ cells in tumor tissue: a large number of CD+3 cells
[2]; tumor nodules collected day 14
  T lymphocyte infiltration into tumor tissues: increases
B16 cells; intratumoral in left flank, 2.5 mg/kg on days 7, 9, 11, 13, 15, FIG. 6
  antitumor activity, treated and distant tumor nodules: potent antitumor activity in both treated and distant tumor nodules
B16 cells; intratumoral, data not shown
  tumor checkpoint expression: modulated
CT26 cells [3]; intratumoral in left flank, 2.5 mg/kg on days 7, 9, 11, 13, 15, FIG. 5
  antitumor activity, treated and distant tumor nodules: potent antitumor activity in both treated and distant tumor nodules
CT26 cells [3]; intratumoral, data not shown
  tumor checkpoint expression: modulated
